Results from patent US20240239785A1, “SUBSTITUTED 2-(2,6-DIOXOPIPERIDIN-3-YL)-5-(1-PIPERIDIN-4-YL)ISOINDOLINE-1,3-DIONE DERIVATIVES AND USES THEREOF” (Neomorph, Inc., priority 2021, published 2024).
Structures can show the parent of a compound that is named as a salt.

Target: T1, IKZF2 (Homo sapiens, UniProt Q96SW2+Q9UKS7)
T1 construct: endogenous in cells; host or cells: MOLT4 (CRISPR/Cas9 HiBit knock-in at the IKZF2 locus)
Test: MOLT4 IKZF2 HiBit assay
Format: cell-based
Settings: MOLT4 IKZF2 HiBit cells; for DC50: 6 hours incubation, 10-point dose response from 30 μM; for Dmax at 30 µM: MOLT-4, 6 hr (Dmax), read-out: % reduction of IKZF2 @ 30 μM (6 hr)
Method: MOLT4 IKZF2 HiBit Assay Protocol:
This protocol used MOLT4 cells that were engineered using CRISPR/Cas9-mediated genomic insertion of HiBit, tagged to the N terminus of the IKZF2 coding sequence. Day 1. A 10-point dose response was created starting from 30 μM down to InM using a Tecan D300e. Next was added 8,000 cells/well of the MOLT4 IKZF2 HiBit cells to the compound plate. The compounds plate was incubated for 6 hours. Day 2. Nano-Glo HiBit Lytic Buffer/Nano-Glo HiBit Lytic substrate/LgBit Protein mix was added to each well and the compound plate was incubated for 15 minutes. Finally, luminescence signal was read using a BMG Labtech PHERAstar FSX. Data was normalized to DMSO and graphed using GraphPad Prism to determine the concentration points at which 50% of HiBiT-Helios degradation was achieved by each compound. The extent of degradation (range of luminescence) from the highest to lowest concentration points was calculated to determine Dmax.

T1 sequence (Q9UKS7 whole entry): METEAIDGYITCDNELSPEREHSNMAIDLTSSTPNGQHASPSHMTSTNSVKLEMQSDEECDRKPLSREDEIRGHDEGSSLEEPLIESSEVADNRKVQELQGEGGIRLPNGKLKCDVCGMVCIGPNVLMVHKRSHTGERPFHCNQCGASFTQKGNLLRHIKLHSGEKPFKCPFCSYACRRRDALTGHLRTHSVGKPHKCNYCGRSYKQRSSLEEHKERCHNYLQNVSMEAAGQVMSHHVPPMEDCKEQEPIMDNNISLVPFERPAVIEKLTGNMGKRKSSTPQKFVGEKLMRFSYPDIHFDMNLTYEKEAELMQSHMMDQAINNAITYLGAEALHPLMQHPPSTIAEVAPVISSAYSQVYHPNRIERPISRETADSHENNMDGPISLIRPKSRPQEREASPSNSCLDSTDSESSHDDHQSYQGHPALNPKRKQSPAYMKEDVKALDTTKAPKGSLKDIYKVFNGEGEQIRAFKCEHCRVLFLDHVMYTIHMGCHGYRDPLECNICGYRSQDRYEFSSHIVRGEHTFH
T1 sequence (Q96SW2 whole entry): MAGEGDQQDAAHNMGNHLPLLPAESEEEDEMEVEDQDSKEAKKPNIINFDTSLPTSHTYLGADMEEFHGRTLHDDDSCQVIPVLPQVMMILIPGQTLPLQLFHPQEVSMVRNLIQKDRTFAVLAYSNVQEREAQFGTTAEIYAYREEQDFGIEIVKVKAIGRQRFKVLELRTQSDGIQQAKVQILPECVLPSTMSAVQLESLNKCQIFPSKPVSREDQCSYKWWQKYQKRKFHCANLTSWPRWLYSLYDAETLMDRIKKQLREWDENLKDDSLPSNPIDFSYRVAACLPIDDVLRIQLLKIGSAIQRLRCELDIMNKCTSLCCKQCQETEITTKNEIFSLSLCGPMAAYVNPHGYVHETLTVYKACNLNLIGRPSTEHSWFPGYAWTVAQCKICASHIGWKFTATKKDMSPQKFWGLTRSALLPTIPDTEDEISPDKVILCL
T1 sequence (Q16531 whole entry partner): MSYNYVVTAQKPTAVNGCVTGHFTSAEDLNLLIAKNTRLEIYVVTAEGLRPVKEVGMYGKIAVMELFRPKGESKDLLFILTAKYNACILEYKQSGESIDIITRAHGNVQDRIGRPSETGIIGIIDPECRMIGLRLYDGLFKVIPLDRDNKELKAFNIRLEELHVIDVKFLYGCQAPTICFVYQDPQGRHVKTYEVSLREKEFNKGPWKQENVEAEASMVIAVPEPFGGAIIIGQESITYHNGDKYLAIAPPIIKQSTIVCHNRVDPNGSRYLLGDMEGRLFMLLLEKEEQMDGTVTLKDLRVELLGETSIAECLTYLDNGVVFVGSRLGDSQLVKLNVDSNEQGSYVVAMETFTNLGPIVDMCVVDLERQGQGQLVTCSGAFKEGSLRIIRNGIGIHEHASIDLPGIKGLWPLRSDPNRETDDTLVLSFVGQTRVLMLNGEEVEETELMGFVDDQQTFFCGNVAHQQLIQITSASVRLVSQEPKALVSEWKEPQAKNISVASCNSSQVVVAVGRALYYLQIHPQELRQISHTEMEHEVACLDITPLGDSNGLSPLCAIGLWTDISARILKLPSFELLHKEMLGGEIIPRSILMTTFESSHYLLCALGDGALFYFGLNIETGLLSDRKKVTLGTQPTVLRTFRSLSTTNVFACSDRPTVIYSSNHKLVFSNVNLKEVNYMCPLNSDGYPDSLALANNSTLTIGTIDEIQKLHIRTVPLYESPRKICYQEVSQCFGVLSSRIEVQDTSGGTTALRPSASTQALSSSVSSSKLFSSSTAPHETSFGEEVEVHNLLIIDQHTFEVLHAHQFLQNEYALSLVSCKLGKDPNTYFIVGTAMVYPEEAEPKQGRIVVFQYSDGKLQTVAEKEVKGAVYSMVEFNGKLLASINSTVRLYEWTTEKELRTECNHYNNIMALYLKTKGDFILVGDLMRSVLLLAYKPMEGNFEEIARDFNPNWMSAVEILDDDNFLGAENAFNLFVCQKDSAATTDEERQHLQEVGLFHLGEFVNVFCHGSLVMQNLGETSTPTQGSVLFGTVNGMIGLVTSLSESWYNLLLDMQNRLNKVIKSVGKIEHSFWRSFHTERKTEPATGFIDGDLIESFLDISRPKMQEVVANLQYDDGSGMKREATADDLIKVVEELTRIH

Molecule `O=C1CCC(N2C(=O)c3ccc(C4(O)CCN(Cc5ccc6ncn(-c7ccccn7)c(=O)c6c5)CC4)cc3C2=O)C(=O)N1` (stereo not shown) [Compound 98, 2-(2,6-dioxopiperidin-3-yl)-5-(4-hydroxy-1-((4-oxo-3-(pyridin-2-yl)-3,4-dihydroquinazolin-6-yl)methyl)piperidin-4-yl)isoindoline-1,3-dione] has a DC50 of 1.5 nM and a Dmax at 30 µM of 72%.

`O=C1CCC(N2C(=O)c3ccc(C4(O)CCN(Cc5ccn(-c6ccccc6)n5)CC4)cc3C2=O)C(=O)N1` (stereo not shown) [Compound 94, 2-(2,6-dioxopiperidin-3-yl)-5-{4-hydroxy-1-[(1-phenyl-1H-pyrazol-3-yl)methyl]piperidin-4-yl}-2,3-dihydro-1H-isoindole-1,3-dione, HCl salt] gave a DC50 of 8 nM and a Dmax at 30 µM of 79%.

`O=C1CCC(N2C(=O)c3ccc(C4(O)CCN(Cc5cccnc5)CC4)cc3C2=O)C(=O)N1` (stereo not shown) [Compound 69, 2-(2,6-dioxopiperidin-3-yl)-5-{4-hydroxy-1-[(pyridin-3-yl)methyl]piperidin-4-yl}-2,3-dihydro-1H-isoindole-1,3-dione, formic acid salt] gave a DC50 of 39 nM and a Dmax at 30 µM of 72%.

With `O=C1CCC(N2C(=O)c3ccc(C4(O)CCN(Cc5ccc6ncn(-c7cccnc7)c(=O)c6c5)CC4)cc3C2=O)C(=O)N1` (stereo not shown) [Compound 99, 2-(2,6-dioxopiperidin-3-yl)-5-(4-hydroxy-1-{[4-oxo-3-(pyridin-3-yl)-3,4-dihydroquinazolin-6-yl]methyl}piperidin-4-yl)-2,3-dihydro-1H-isoindole-1,3-dione, formic acid salt] the DC50 was 1 nM and the Dmax at 30 µM was 89%.

In the case of `O=C1CCC(N2C(=O)c3ccc(C4(O)CCN(Cc5ccc(-c6nccs6)cc5)CC4)cc3C2=O)C(=O)N1` (stereo not shown) [Compound 147, 2-(2,6-dioxopiperidin-3-yl)-5-(4-hydroxy-1-{[4-(1,3-thiazol-2-yl)phenyl]methyl}piperidin-4-yl)-2,3-dihydro-1H-isoindole-1,3-dione, HCl salt], the DC50 is reported as 8 nM and the Dmax at 30 µM is reported as 88%.

`COCc1ccc(CN2CCC(O)(c3ccc4c(c3)C(=O)N(C3CCC(=O)NC3=O)C4=O)CC2)cc1` (stereo not shown) [Compound 61, 2-(2,6-dioxopiperidin-3-yl)-5-(4-hydroxy-1-{[4-(methoxymethyl)phenyl]methyl}piperidin-4-yl)-2,3-dihydro-1H-isoindole-1,3-dione, HCl salt] showed a DC50 of 5 nM and a Dmax at 30 µM of 83%.

Molecule `N#Cc1ccc(CN2CCC(O)(c3ccc4c(c3)C(=O)N(C3CCC(=O)NC3=O)C4=O)CC2)cc1` (stereo not shown) [Compound 57, 4-({4-[2-(2,6-dioxopiperidin-3-yl)-1,3-dioxo-2,3-dihydro-1H-isoindol-5-yl]-4-hydroxypiperidin-1-yl}methyl)benzonitrile] has a DC50 of 6 nM and a Dmax at 30 µM of 81%.

Molecule `CCCN1CCC(O)(c2ccc3c(c2)C(=O)N(C2CCC(=O)NC2=O)C3=O)CC1` (stereo not shown) [Compound 146, 2-(2,6-dioxopiperidin-3-yl)-5-(4-hydroxy-1-propylpiperidin-4-yl)-2,3-dihydro-1H-isoindole-1,3-dione, HCl salt] has a DC50 of 43 nM and a Dmax at 30 µM of 69%.

For `O=C1CCC(N2C(=O)c3ccc(C4(O)CCN(Cc5ccccc5)CC4)c(F)c3C2=O)C(=O)N1` (stereo not shown) [Compound 128, 5-(1-benzyl-4-hydroxypiperidin-4-yl)-2-(2,6-dioxopiperidin-3-yl)-4-fluoro-2,3-dihydro-1H-isoindole-1,3-dione, HCl salt], the DC50 was 2 nM and the Dmax at 30 µM was 81%.

With `COc1ccc(CN2CCC(O)(c3ccc4c(c3)C(=O)N(C3CCC(=O)NC3=O)C4=O)CC2)cn1` (stereo not shown) [Compound 72, 2-(2,6-dioxopiperidin-3-yl)-5-{4-hydroxy-1-[(6-methoxypyridin-3-yl)methyl]piperidin-4-yl}-2,3-dihydro-1H-isoindole-1,3-dione, HCl salt] the DC50 was 1 nM and the Dmax at 30 µM was 80%.

Work on `Cn1ncc2ccc(CN3CCC(O)(c4ccc5c(c4)C(=O)N(C4CCC(=O)NC4=O)C5=O)CC3)cc21` (stereo not shown) [Compound 140, 2-(2,6-dioxopiperidin-3-yl)-5-{4-hydroxy-1-[(1-methyl-1H-indazol-6-yl)methyl]piperidin-4-yl}-2,3-dihydro-1H-isoindole-1,3-dione, formic acid salt] yielded a DC50 of 3 nM and a Dmax at 30 µM of 87%.

`O=C1CCC(N2C(=O)c3ccc(C4CCN(Cc5ccc6ncn(-c7ccccn7)c(=O)c6c5)CC4)cc3C2=O)C(=O)N1` (stereo not shown) [Compound 97, 2-(2,6-dioxopiperidin-3-yl)-5-(1-((4-oxo-3-(pyridin-2-yl)-3,4-dihydroquinazolin-6-yl)methyl)piperidin-4-yl)isoindoline-1,3-dione] was tested, and the Dmax at 30 µM was 36%.

With `Cn1ncc2cc(CN3CCC(O)(c4ccc5c(c4)C(=O)N(C4CCC(=O)NC4=O)C5=O)CC3)ccc21` (stereo not shown) [Compound 145, 2-(2,6-dioxopiperidin-3-yl)-5-{4-hydroxy-1-[(1-methyl-1H-indazol-5-yl)methyl]piperidin-4-yl}-2,3-dihydro-1H-isoindole-1,3-dione, formic acid salt] the DC50 was 4 nM and the Dmax at 30 µM was 83%.

`N#Cc1cccc(CN2CCC(O)(c3ccc4c(c3)C(=O)N(C3CCC(=O)NC3=O)C4=O)CC2)c1` (stereo not shown) [Compound 42, 3-({4-[2-(2,6-dioxopiperidin-3-yl)-1,3-dioxo-2,3-dihydro-1H-isoindol-5-yl]-4-hydroxypiperidin-1-yl}methyl)benzonitrile] was tested, and the DC50 was 9 nM and the Dmax at 30 µM was 80%.

`O=C1CCC(N2C(=O)c3ccc(C4(O)CCN(Cc5ccccn5)CC4)cc3C2=O)C(=O)N1` (stereo not shown) [Compound 68, 2-(2,6-dioxopiperidin-3-yl)-5-{4-hydroxy-1-[(pyridin-2-yl)methyl]piperidin-4-yl}-2,3-dihydro-1H-isoindole-1,3-dione, HCl salt] was tested, and the DC50 was 21 nM and the Dmax at 30 µM was 71%.

`CCCN1CCC(O)(c2ccc3c(c2F)C(=O)N(C2CCC(=O)NC2=O)C3=O)CC1` (stereo not shown) [Compound 148, 2-(2,6-dioxopiperidin-3-yl)-4-fluoro-5-(4-hydroxy-1-propylpiperidin-4-yl)-2,3-dihydro-1H-isoindole-1,3-dione, HCl salt] showed a DC50 of 30 nM and a Dmax at 30 µM of 73%.

In the case of `COC[C@H]1CC[C@H](CN2CCC(O)(c3ccc4c(c3)C(=O)N(C3CCC(=O)NC3=O)C4=O)CC2)CC1` (stereo partly drawn) [Compound 84, trans-2-(2,6-dioxopiperidin-3-yl)-5-(4-hydroxy-1-((4-(methoxymethyl)cyclohexyl)methyl)piperidin-4-yl)isoindoline-1,3-dione], the DC50 is reported as 8.3 nM and the Dmax at 30 µM is reported as 60%.

`Cn1c(CN2CCC(O)(c3ccc4c(c3)C(=O)N(C3CCC(=O)NC3=O)C4=O)CC2)cc2ccccc21` (stereo not shown) [Compound 142, 2-(2,6-dioxopiperidin-3-yl)-5-{4-hydroxy-1-[(1-methyl-1H-indol-2-yl)methyl]piperidin-4-yl}-2,3-dihydro-1H-isoindole-1,3-dione, formic acid salt] gave a DC50 of 13 nM and a Dmax at 30 µM of 82%.

Work on `CC(c1ccc(C(F)(F)F)cc1)N1CCC(O)(c2ccc3c(c2)C(=O)N(C2CCC(=O)NC2=O)C3=O)CC1` (stereo not shown) [Compound 143, 2-(2,6-dioxopiperidin-3-yl)-5-(4-hydroxy-1-{1-[4-(trifluoromethyl)phenyl]ethyl}piperidin-4-yl)-2,3-dihydro-1H-isoindole-1,3-dione, HCl salt] yielded a DC50 of 6 nM and a Dmax at 30 µM of 84%.
